Measurements: ChEMBL document CHEMBL5537201, “Discovery of Unique Bis-Substituted Aromatic Amide Derivatives as Novel Highly Potent Antibiotics for Combating Methicillin-Resistant Staphylococcus aureus (MRSA)” (J Med Chem, 2024)
≈ marks a conversion by molar mass, not a printed value. Calls of active or inactive are those of the source. No cut-off for these calls is given here.

Assays:
Staphylococcus aureus [1] = assay: Antimicrobial activity against methicillin resistant Staphylococcus aureus clinical isolate MRS1 assessed as reduction in bacterial growth incubated for 24 hrs by two-fold broth dilution method; assay type: functional
Staphylococcus aureus [2] = assay: Antimicrobial activity against methicillin resistant Staphylococcus aureus clinical isolate MRS97 assessed as reduction in bacterial growth incubated for 24 hrs by two-fold broth dilution method; assay type: functional
Staphylococcus aureus [3] = assay: Antimicrobial activity against methicillin resistant Staphylococcus aureus clinical isolate MRS121 assessed as reduction in bacterial growth incubated for 24 hrs by two-fold broth dilution method; assay type: functional
Staphylococcus aureus [4] = assay: Antimicrobial activity against Staphylococcus aureus ATCC6538 assessed as reduction in bacterial growth incubated for 24 hrs by two-fold broth dilution method; assay type: functional
Staphylococcus aureus [5] = assay: Antimicrobial activity against methicillin resistant Staphylococcus aureus clinical isolate MRS207 assessed as reduction in bacterial growth incubated for 24 hrs by two-fold broth dilution method; assay type: functional
Staphylococcus aureus [6] = assay: Antimicrobial activity against methicillin resistant Staphylococcus aureus clinical isolate MRS108 assessed as reduction in bacterial growth incubated for 24 hrs by two-fold broth dilution method; assay type: functional
Staphylococcus aureus [7] = assay: Antimicrobial activity against methicillin resistant Staphylococcus aureus clinical isolate MRS23 assessed as reduction in bacterial growth incubated for 24 hrs by two-fold broth dilution method; assay type: functional
Staphylococcus aureus [8] = assay: Antimicrobial activity against methicillin resistant Staphylococcus aureus clinical isolate MRS200 assessed as reduction in bacterial growth incubated for 24 hrs by two-fold broth dilution method; assay type: functional
Staphylococcus aureus [9] = assay: Antimicrobial activity against methicillin resistant Staphylococcus aureus clinical isolate MRS152 assessed as reduction in bacterial growth incubated for 24 hrs by two-fold broth dilution method; assay type: functional
Staphylococcus aureus [10] = assay: Antimicrobial activity against methicillin resistant Staphylococcus aureus clinical isolate MRS84 assessed as reduction in bacterial growth incubated for 24 hrs by two-fold broth dilution method; assay type: functional
Staphylococcus hominis = assay: Antimicrobial activity against methicillin-resistant Staphylococcus hominis assessed as reduction in bacterial growth incubated for 24 hrs by two-fold broth dilution method; assay type: functional
Staphylococcus aureus [11] = assay: Antimicrobial activity against methicillin resistant Staphylococcus aureus clinical isolate MRS70 assessed as reduction in bacterial growth incubated for 24 hrs by two-fold broth dilution method; assay type: functional
Staphylococcus aureus [12] = assay: Antimicrobial activity against Staphylococcus aureus N315 assessed as reduction in bacterial growth incubated for 24 hrs by two-fold broth dilution method; assay type: functional
Staphylococcus aureus [13] = assay: Antimicrobial activity against methicillin resistant Staphylococcus aureus clinical isolate MRS273 assessed as reduction in bacterial growth incubated for 24 hrs by two-fold broth dilution method; assay type: functional
Streptomyces albus = assay: Antimicrobial activity against Streptomyces albus SHBC D11158 assessed as reduction in bacterial growth incubated for 24 hrs by two-fold broth dilution method; assay type: functional
Staphylococcus aureus [14] = assay: Antimicrobial activity against methicillin resistant Staphylococcus aureus clinical isolate MRS153 assessed as reduction in bacterial growth incubated for 24 hrs by two-fold broth dilution method; assay type: functional
A549 = assay: Cytotoxicity against human A549 cells assessed as reduction in cell viability measured after 24 hrs by CCK-8 method; assay type: functional, cell-based; settings: A549, 24 h
[15] = Cytotoxicity against HEK293 cells assessed as reduction in cell viability measured after 24 hrs by CCK-8 method; assay type: toxicity, cell-based; settings: human
[16] = Cytotoxicity against African green monkey Vero E6 cells assessed as reduction in cell viability measured after 24 hrs by CCK-8 method; assay type: toxicity, cell-based, Chlorocebus sabaeus, Vero C1008
HeLa = assay: Cytotoxicity against human HeLa cells assessed as reduction in cell viability measured after 24 hrs by CCK-8 method; assay type: functional, cell-based
[17] = Selectivity index, ratio of HC50 for rabbit Red blood cell to MIC for Staphylococcus aureus ATCC6538; assay type: toxicity; settings: red blood cells (erythrocytes), read-out: Selectivity Index
Staphylococcus aureus [18] = assay: Induction of drug resistance in Staphylococcus aureus ATCC6538 assessed as change in MIC measured after 10 passages; assay type: functional
[19] = Hemolytic activity in rabbit Red blood cell assessed as hemolysis incubated for 1 hr by two-fold microdilution method; assay type: toxicity, cell-based, Oryctolagus cuniculus, Erythrocyte; settings: red blood cells (erythrocytes)
[20] = Selectivity index, ratio of IC50 for African green monkey Vero E6 cells to MIC for Staphylococcus aureus ATCC6538; assay type: toxicity; settings: read-out: Selectivity Index
[21] = Cytotoxicity against human HaCaT cells assessed as reduction in cell viability measured after 24 hrs by CCK-8 method; assay type: toxicity, cell-based

## COc1ccccc1-c1ccc(O)c(N(Cc2cc3ccccc3s2)C(=O)CCC(F)(F)F)c1
Staphylococcus aureus [1]
  MIC: 16 µg/mL (≈ 33 µM)
Staphylococcus aureus [2]
  MIC: 3 µg/mL (≈ 6.18 µM)
Staphylococcus aureus [3]
  MIC: 6 µg/mL (≈ 12.4 µM)
Staphylococcus aureus [4]
  MIC: 1 µg/mL (≈ 2.06 µM)
Staphylococcus aureus [5]
  MIC: > 16 µg/mL
Staphylococcus aureus [6]
  MIC: 6 µg/mL (≈ 12.4 µM)
Staphylococcus aureus [7]
  MIC: 16 µg/mL (≈ 33 µM)
Staphylococcus aureus [8]
  MIC: 16 µg/mL (≈ 33 µM)
Staphylococcus aureus [9]
  MIC: 6 µg/mL (≈ 12.4 µM)
Staphylococcus aureus [10]
  MIC: 3 µg/mL (≈ 6.18 µM)
Staphylococcus hominis
  MIC: > 32 µg/mL
Staphylococcus aureus [11]
  MIC: 16 µg/mL (≈ 33 µM)
Staphylococcus aureus [12]
  MIC: 1 µg/mL (≈ 2.06 µM)
Staphylococcus aureus [13]
  MIC: 3 µg/mL (≈ 6.18 µM)
Streptomyces albus
  MIC: 16 µg/mL (≈ 33 µM)
Staphylococcus aureus [14]
  MIC: 16 µg/mL (≈ 33 µM)

## O=C(CCC(F)(F)F)N(Cc1cc2ccccc2s1)c1cc(-c2ccncc2)ccc1O
Staphylococcus aureus [4]
  MIC: > 16 µg/mL
Staphylococcus aureus [12]
  MIC: > 16 µg/mL

## O=C(CCCCl)N(Cc1cc2ccccc2s1)c1ccc2ccccc2c1O
Staphylococcus aureus [4]
  MIC: 7.8 µg/mL (≈ 19 µM)
Staphylococcus aureus [12]
  MIC: 31.2 µg/mL (≈ 76.2 µM)

## O=C(CCC(F)(F)F)N(Cc1cc2ccccc2s1)c1c(O)cccc1-c1ccccc1
Staphylococcus aureus [4]
  MIC: 2 µg/mL (≈ 4.39 µM)
Staphylococcus aureus [12]
  MIC: 6 µg/mL (≈ 13.2 µM)

## CC(C)(C)c1ccc(-c2ccc(O)c(N(Cc3cc4ccccc4s3)C(=O)CCC(F)(F)F)c2)cc1
Staphylococcus aureus [4]
  MIC: 2 µg/mL (≈ 3.91 µM)
Staphylococcus aureus [12]
  MIC: 1 µg/mL (≈ 1.95 µM)

## O=C(CCC(F)(F)F)N(Cc1cc2ccccc2s1)c1cc(-c2ccc(Cl)cc2)ccc1O
Staphylococcus aureus [1]
  MIC: 6 µg/mL (≈ 12.2 µM)
Staphylococcus aureus [2]
  MIC: 3 µg/mL (≈ 6.12 µM)
A549
  IC50: 16.2 µg/mL (≈ 33.1 µM)
Staphylococcus aureus [3]
  MIC: 3 µg/mL (≈ 6.12 µM)
Staphylococcus aureus [4]
  MIC: 1 µg/mL (≈ 2.04 µM)
Staphylococcus aureus [5]
  MIC: 16 µg/mL (≈ 32.7 µM)
[15]
  IC50 at 24 h: > 25 µg/mL
Staphylococcus aureus [6]
  MIC: 6 µg/mL (≈ 12.2 µM)
Staphylococcus aureus [7]
  MIC: 16 µg/mL (≈ 32.7 µM)
[16]
  IC50 at 24 h: 21.5 µg/mL (≈ 43.8 µM)
HeLa
  IC50: 22.8 µg/mL (≈ 46.6 µM)
Staphylococcus aureus [8]
  MIC: 16 µg/mL (≈ 32.7 µM)
Staphylococcus aureus [9]
  MIC: 6 µg/mL (≈ 12.2 µM)
Staphylococcus aureus [10]
  MIC: 3 µg/mL (≈ 6.12 µM)
[17]
  selectivity ratio: > 1000
Staphylococcus hominis
  MIC: 4 µg/mL (≈ 8.16 µM)
Staphylococcus aureus [11]
  MIC: 6 µg/mL (≈ 12.2 µM)
Staphylococcus aureus [18]
  Activity: Active
Staphylococcus aureus [12]
  MIC: 1 µg/mL (≈ 2.04 µM)
[19]
  HC50 at 1 h: 1920 µg/mL
[20]
  selectivity ratio: 21
Staphylococcus aureus [13]
  MIC: 16 µg/mL (≈ 32.7 µM)
Streptomyces albus
  MIC: 4 µg/mL (≈ 8.16 µM)
[21]
  IC50 at 24 h: 13.8 µg/mL (≈ 28.2 µM)
Staphylococcus aureus [14]
  MIC: 6 µg/mL (≈ 12.2 µM)

## CCCCC(=O)N(Cc1ccc2c(c1)OCO2)c1ccc2ccccc2c1O
Staphylococcus aureus [4]
  MIC: 31.2 µg/mL (≈ 82.8 µM)
Staphylococcus aureus [12]
  MIC: 31.2 µg/mL (≈ 82.8 µM)

## COc1cccc(-c2ccc(O)c(N(Cc3cc4ccccc4s3)C(=O)CCC(F)(F)F)c2)c1
Staphylococcus aureus [1]
  MIC: > 16 µg/mL
Staphylococcus aureus [2]
  MIC: 6 µg/mL (≈ 12.4 µM)
Staphylococcus aureus [3]
  MIC: > 16 µg/mL
Staphylococcus aureus [4]
  MIC: 1 µg/mL (≈ 2.06 µM)
Staphylococcus aureus [5]
  MIC: > 16 µg/mL
Staphylococcus aureus [6]
  MIC: 6 µg/mL (≈ 12.4 µM)
Staphylococcus aureus [7]
  MIC: 6 µg/mL (≈ 12.4 µM)
Staphylococcus aureus [8]
  MIC: > 16 µg/mL
Staphylococcus aureus [9]
  MIC: > 16 µg/mL
Staphylococcus aureus [10]
  MIC: 16 µg/mL (≈ 33 µM)
Staphylococcus hominis
  MIC: > 32 µg/mL
Staphylococcus aureus [11]
  MIC: > 16 µg/mL
Staphylococcus aureus [12]
  MIC: 1 µg/mL (≈ 2.06 µM)
Staphylococcus aureus [13]
  MIC: 16 µg/mL (≈ 33 µM)
Streptomyces albus
  MIC: > 32 µg/mL
Staphylococcus aureus [14]
  MIC: > 16 µg/mL

## CCCCC(=O)N(Cc1ccc2sccc2c1)c1ccc2ccccc2c1O
Staphylococcus aureus [4]
  MIC: 31.2 µg/mL (≈ 80.2 µM)
Staphylococcus aureus [12]
  MIC: 62.5 µg/mL (≈ 160 µM)

## O=C(CCC(F)(F)F)N(Cc1cc2ccccc2s1)c1ccc(-c2ccccc2)cc1O
Staphylococcus aureus [4]
  MIC: 2 µg/mL (≈ 4.39 µM)
Staphylococcus aureus [12]
  MIC: 3 µg/mL (≈ 6.59 µM)

## C=CC(=O)N(Cc1cc2ccccc2s1)c1ccc2ccccc2c1O
Staphylococcus aureus [4]
  MIC: 7.8 µg/mL (≈ 21.7 µM)
Staphylococcus aureus [12]
  MIC: 7.8 µg/mL (≈ 21.7 µM)

## O=C(CCC(F)(F)F)N(Cc1cc2ccccc2s1)c1cc(-c2cncnc2)ccc1O
Staphylococcus aureus [4]
  MIC: > 16 µg/mL
Staphylococcus aureus [12]
  MIC: > 16 µg/mL

## CCCCC(=O)N(Cc1ccc2oc3ccccc3c2c1)c1ccc2ccccc2c1O
Staphylococcus aureus [4]
  MIC: 62.5 µg/mL (≈ 148 µM)
Staphylococcus aureus [12]
  MIC: 125 µg/mL (≈ 295 µM)

## CCCCC(=O)N(Cc1cc2ccccc2c2ccccc12)c1ccc2ccccc2c1O
Staphylococcus aureus [4]
  MIC: 62.5 µg/mL (≈ 144 µM)
Staphylococcus aureus [12]
  MIC: 125 µg/mL (≈ 288 µM)

## CCCC(=O)N(Cc1cc2ccccc2s1)c1ccc2ccccc2c1O
Staphylococcus aureus [4]
  MIC: > 250 µg/mL
Staphylococcus aureus [12]
  MIC: > 250 µg/mL

## CCCCC(=O)N(Cc1cc(C(C)(C)C)cc(C(C)(C)C)c1)c1ccc2ccccc2c1O
Staphylococcus aureus [4]
  MIC: 62.5 µg/mL (≈ 140 µM)
Staphylococcus aureus [12]
  MIC: 62.5 µg/mL (≈ 140 µM)
